In experiment [1] the test system is P. multocida. Put plainly: Murine P. multocida intranasal challenge study with lung tissue RNA sequence analysis. It counts as in vivo, mouse. Particulars: placebo 0%. On the procedure: In one murine P. multocida intranasal challenge study, mice were administered tulathromycin (16 mg/kg; T02), M9 (32 mg/kg; T03), or ceftiofur (9 mg/kg; T04) by subcutaneous injection 18 hours after bacterial challenge (5×10^3 CFU/mouse) for lung tissue RNA sequence analysis. Survival at Day 7 was about 80%, 50%, and 90% for T02, T03, and T04, respectively, compared to placebo at 0%. Differential gene expression from total lung tissue RNA sequence analysis indicated at least 226 unique genes were up or down regulated (with significance) for T03. Output from ingenuity pathway analysis of these unique genes predicted major upstream regulators of the involved pathways. Data was analyzed based on the number of genes being modulated in the same direction that were associated with a given upstream regulator. An activation z-score of 2 or greater is considered significant and the direction change is indicated by + (activated) or − (inhibited). The top 5 pathways included: IL-9 signaling, glucocorticoid receptor signaling, prolactin signaling, JAK STAT signaling, and IL-17 signaling. The top 6 upstream regulators (activation z-score) included: lipopolysaccharide (−6.725), TNF (−4.669), IFNγ (−5.759), IL-1β (−5.947), STAT1 (−2.787), and poly rI:rC-RNA (−5.289). Even though this study was run in the murine model, the top upstream regulators identified as being modulated by M9 include an almost ubiquitous overlap with the pathways identified in the natural disease study as being key mediators in BRD, and therefore is modulating highly relevant pathways in BRD pathobiology.

Experiment [2] has as its system bovine respiratory disease (BRD). The experiment can be described thus: Natural bovine respiratory disease study. The format is in vivo, beef calves. Particulars: T04, dose not given, 14-day observation; saline 43%.
Experiment [3] deals with H. somni. Put plainly: In-vitro MIC model, H. somni. The format is cell-based. The note with it: lung isolates at necropsy, natural BRD study, H. somni (25).
The test system of experiment [4] is M. haemolytica. Put plainly: In-vitro MIC model, M. haemolytica. The format is cell-based.
Experiment [5] concerns P. multocida. The experiment can be described thus: In-vitro MIC model, P. multocida. It counts as cell-based.
Experiment [6] has as its system M. haemolytica (strain: OSU-012103-BHI). Put plainly: Bovine M. haemolytica intratracheal lung challenge model. It counts as in vivo.
[7] abbreviates: lung isolates at necropsy, natural BRD study, M. haemolytica (116).
Setting [8] is: lung isolates at necropsy, natural BRD study, P. multocida (33).

In brackets after ≈: the same amount, converted by molar mass. Where only a bound is given, the exact number is not on record here.

Regarding `CO/N=C(\C(=O)N[C@@H]1C(=O)N2C(C(=O)O)=C(CSC(=O)c3ccco3)CS[C@H]12)c1csc(N)n1` [ceftiofur], the “Survival at Day 7” value in experiment [1] (9 mg/kg subcutaneous 18 hours after challenge (T04)) is about 90%.

Usually MIC50 stands for an inhibitory concentration at the 50% level, which refers to growth in some studies and to a panel of isolates in others. Higher therefore signals lower susceptibility. Broadly, the MIC90 is the lowest concentration that inhibits either 90% of growth or 90% of the strains tested, depending on the study. A lower MIC90 goes with greater potency. For the compound `CCCN1C[C@H](C)[C@@H](O)[C@](C)(O)[C@@H](CC)OC(=O)[C@H](C)[C@@H](O[C@H]2C[C@@](C)(OC)[C@@H](O)[C@H](C)O2)[C@H](C)[C@@H](O[C@@H]2O[C@H](C)C[C@H](N(C)C)[C@H]2O)[C@](C)(O)C[C@H]1C` [gamithromycin, reference compound], the “Percent failure (treatment failure)” value in experiment [2] is reported as 29.8%. Moreover, the results for the MIC50 in experiment [3], in experiment [4] (setting [7]) and in experiment [5] (setting [8]) were 0.25 µg/mL (≈ 0.322 µM), 1 µg/mL (≈ 1.29 µM) and 1 µg/mL (≈ 1.29 µM), respectively. Besides, the results for the MIC90 in experiment [3], in experiment [4] (setting [7]) and in experiment [5] (setting [8]) were 2 µg/mL (≈ 2.57 µM), over 64 µg/mL and over 64 µg/mL, respectively. Besides, the “MIC values, range over strains” value lay within 0.5 to 1 µg/mL in experiment [4] (the same M. haemolytica screening strains) and 1 to 2 µg/mL in experiment [5] (the same P. multocida screening strains).

On to `CCCNC[C@]1(O)[C@H](C)O[C@@H](O[C@H]2[C@H](C)[C@@H](O[C@@H]3O[C@H](C)C[C@H](N(C)C)[C@H]3O)[C@](C)(O)C[C@@H](C)CN[C@H](C)[C@@H](O)[C@](C)(O)[C@@H](CC)OC(=O)[C@@H]2C)C[C@@]1(C)OC` [tulathromycin, (2R,3S,4R,5R,8R,10R,11R,12S,13S,14R)-11-(((2S,3R,4S,6R)-4-(dimethylamino)-3-hydroxy-6-methyltetrahydro-2H-pyran-2-yl)oxy)-2-ethyl-3,4,10-trihydroxy-13-(((2R,4R,5S,6S)-5-hydroxy-4-methoxy-4,6-dimethyl-5-((propylamino)methyl)tetrahydro-2H-pyran-2-yl)oxy)-3,5,8,10,12,14-hexamethyl-1-oxa-6-azacyclopentadecan-15-one], for which the “Survival at Day 7” value in experiment [1] (16 mg/kg subcutaneous 18 hours after challenge (T02)) was “about 80%”. In addition, the Mortality in experiment [6] (T03: 2.5 mg/kg subcutaneous Day −1, M. haemolytica challenge Day 0, saline 4/6) is listed as 0/6. Further, in experiment [6] (bovine M. haemolytica challenge, blood biomarker), the “IL-6 levels, in words” value is listed as “significantly reduced”.
